Source: paper PMC6213020, “Identification of a Novel PPAR-γ Agonist through a Scaffold Tuning Approach” (International Journal of Molecular Sciences, 2018)

Assays:
PPAR-γ = molecular target: T1, PPAR-γ (Homo sapiens, UniProt P37231); assay: cell-based PPAR transactivation (luciferase) assay, PPAR-γ; conditions: for activation at 10 µM: 24 h, compounds 10 µM, relative to maximum activation with pioglitazone (10 µM), PPAR-Luc in CV-1 cells, read-out: % max PPAR-γ
T1 construct: host or cells: CV-1
T1 sequence (P37231 1-505): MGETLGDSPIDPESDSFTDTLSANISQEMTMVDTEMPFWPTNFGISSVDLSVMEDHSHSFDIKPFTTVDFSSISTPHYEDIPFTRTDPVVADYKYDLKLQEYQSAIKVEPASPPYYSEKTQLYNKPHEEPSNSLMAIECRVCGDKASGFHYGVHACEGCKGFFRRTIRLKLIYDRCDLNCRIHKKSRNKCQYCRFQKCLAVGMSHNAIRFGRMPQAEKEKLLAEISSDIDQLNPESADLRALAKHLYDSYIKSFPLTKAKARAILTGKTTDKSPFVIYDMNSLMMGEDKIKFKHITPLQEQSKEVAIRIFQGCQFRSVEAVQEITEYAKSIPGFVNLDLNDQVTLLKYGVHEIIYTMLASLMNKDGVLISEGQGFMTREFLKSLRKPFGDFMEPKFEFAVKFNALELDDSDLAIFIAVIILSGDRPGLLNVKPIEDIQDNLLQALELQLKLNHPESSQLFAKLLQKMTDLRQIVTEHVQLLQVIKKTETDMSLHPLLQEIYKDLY
Description: (§1) The PPAR activities of the synthesized dichloroanilide-linked indole analogs were assessed using a standard cell-based transactivation assay in CV-1 cells. GW7647 [42], pioglitazone, and GW0742 [43] were used as positive controls for PPAR-α, -γ, and -δ, respectively. These three positive controls presented the maximum activation for each PPAR subtype. The activity of the compounds was presented as the activation percentage (%) relative to the maximum values of the positive controls at the indicated concentrations.
(§2) Transient transfection and luciferase assay was carried out. CV-1 cells were seeded in 48-well plates at a density of 1.5 × 10^5 cells/well in Dulbecco’s modified Eagle’s medium (DMEM) with containing 10% fetal bovine serum (FBS). The cells were transiently transfected with plasmid mixtures containing PPAR-α/γ expression vector and tk-PPRE-luciferase (Luc) vector for 6 h and then treated with the samples for 24 h. HEK293t cells were seeded in a 60-mm dish at a density of 1.5 × 10^6 cells/dish. After transfection with the plasmid mixtures containing PPAR-δ expression vector and Luc vector for 6 h, the cells were transferred to a 96-well plate and treated with the samples. To normalize the transfection efficiency, a β-galactosidase plasmid was cotransfected. The luciferase activity in the cell lysates was measured using a luciferase assay system (Promega Corp., Madison, WI, USA), and the β-galactosidase activity was determined by measuring the absorbance at 410 nm using an ELISA plate reader. The data were expressed as the relative luciferase activity divided by the β-galactosidase activity. All constructs were kindly gifted by Dr. Ronald M. Evans at The Salk Institute (La Jolla, CA, USA).

PPAR-δ [1] = molecular target: T2, PPAR-δ (Homo sapiens, UniProt Q03181); assay: cell-based PPAR transactivation (luciferase) assay, PPAR-δ; conditions: compounds 10 µM; relative to maximum activation with GW0742 (10 μM); PPAR-Luc in HEK293t cells; read-out: % max PPAR-δ
T2 construct: host or cells: HEK293t
T2 sequence (Q03181 1-441): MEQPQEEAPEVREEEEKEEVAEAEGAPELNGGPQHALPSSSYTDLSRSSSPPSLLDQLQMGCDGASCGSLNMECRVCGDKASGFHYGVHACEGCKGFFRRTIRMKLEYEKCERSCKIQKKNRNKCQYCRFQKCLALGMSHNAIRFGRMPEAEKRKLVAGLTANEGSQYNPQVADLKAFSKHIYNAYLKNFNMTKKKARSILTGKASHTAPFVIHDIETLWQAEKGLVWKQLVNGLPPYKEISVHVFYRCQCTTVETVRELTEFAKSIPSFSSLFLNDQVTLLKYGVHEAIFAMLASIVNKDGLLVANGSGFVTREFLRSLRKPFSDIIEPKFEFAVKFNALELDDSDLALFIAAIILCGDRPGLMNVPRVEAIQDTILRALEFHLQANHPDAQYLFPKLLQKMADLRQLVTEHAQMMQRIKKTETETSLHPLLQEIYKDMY
Description: as §1, §2

PPAR-α = molecular target: T3, PPAR-α (Homo sapiens, UniProt Q07869); assay: TR-FRET LanthaScreen PPAR coactivator recruit assay, PPAR-α (PGC1a peptide); assay type: biochemical
T3 construct: purchased Invitrogen / Thermo Fisher Scientific (assay service)
T3 sequence (Q07869 239-466 limits assumed): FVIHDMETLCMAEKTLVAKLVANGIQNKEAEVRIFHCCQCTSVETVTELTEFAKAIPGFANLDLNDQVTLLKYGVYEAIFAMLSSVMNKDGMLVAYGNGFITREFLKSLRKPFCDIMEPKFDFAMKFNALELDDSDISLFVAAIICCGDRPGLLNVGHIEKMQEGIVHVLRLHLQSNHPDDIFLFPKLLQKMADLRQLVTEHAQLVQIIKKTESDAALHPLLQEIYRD
Source text: (§3) Binding of agonist to the PPAR LBD causes a conformational change around helix 12 in the LBD, resulting in higher affinity for the coactivator peptide. When the terbium label on the anti-GST antibody complexed with PPAR is excited at 340 nm, energy is transferred to the fluorescein label on the coactivator peptide and detected as emission at 520 nm. […] Based on the biology of the PPAR-coactivator peptide interaction, this ligand EC50 is a composite value representing the amount of ligand required to bind to receptor, effect a conformational change, and recruit coactivator peptide. Potency of compounds show similar order to their activity (Table 3). […] Ligands such as TZDs show little or no binding to PPAR-δ. Compound 11 and 15 have ortho or meta substituted benzoic acid as an acidic head group. Their acidic head groups might seem to be too large to fit within the narrow PPAR-δ pocket. In contrast, the compound 1 and 2 contains an acetic acid head group that complements the narrow PPAR-δ ligand binding. […] The potency and selectivity of compound 11 could be explained by harmonization of steric effect of acidic head group, length and rigidity of hydrophobic tail, and properly tuned aromatic linker system.
(§4) EC50 of compounds were determined by recruitment of transcriptional coactivators using the TR-FRET based Lanthascreen coactivator assays (Invitrogen, Carlsbad, CA, USA). Which was serviced by Thermo Fisher Scientific (Medicon, WI, USA) according to the LanthaScreen TR-FRET coregulator protocol and assay conditions. Coregulator peptide PGC1a, TRAP220/DRIP2 and C33 was used for the coactivator recruit assay of PPAR-α, -γ, and -δ, respectively.

PPAR-δ [2] = molecular target: T4, PPAR-δ (Homo sapiens, UniProt Q03181); assay: TR-FRET LanthaScreen PPAR coactivator recruit assay, PPAR-δ (C33 peptide); assay type: biochemical
T4 construct: purchased Invitrogen / Thermo Fisher Scientific (assay service)
T4 sequence (Q03181 211-439 limits assumed): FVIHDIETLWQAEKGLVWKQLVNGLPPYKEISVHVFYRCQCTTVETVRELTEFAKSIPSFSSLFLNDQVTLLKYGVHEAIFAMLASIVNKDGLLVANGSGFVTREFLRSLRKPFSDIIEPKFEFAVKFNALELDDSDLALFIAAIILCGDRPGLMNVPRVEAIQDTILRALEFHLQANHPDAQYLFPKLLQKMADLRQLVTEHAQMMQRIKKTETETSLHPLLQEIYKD
Source text: as §3, §4

SMILES | activation at 10 µM (PPAR-γ) | PPAR-γ activity relative to that of pioglitazone (PPAR-γ; cell-based reporter assay) | activation at 10 µM (PPAR-δ [1]) | EC50 (PPAR-α) | EC50 (PPAR-δ [2])
O=C(COc1ccc2c(ccn2Cc2ccccc2C(=O)O)c1)Nc1ccc(Cl)cc1Cl [Compound 12, 2-((5-(2-((2,4-Dichlorophenyl)amino)-2-oxoethoxy)-1H-indol-1-yl)methyl)benzoic acid] | 189.2 ± 1.67% | approximately 2 fold | 94.86 ± 0.2% | 3.87 µM | 32.6 µM
O=C(COc1ccc2ccn(Cc3ccccc3C(=O)O)c2c1)Nc1ccc(Cl)cc1Cl [Compound 13, 2-((6-(2-((2,4-Dichlorophenyl)amino)-2-oxoethoxy)-1H-indol-1-yl)methyl)benzoic acid] | 74.5 ± 0.94% |  | 86.7 ± 0.53% | 16.9 µM | > 100 µM
O=C(COc1ccc2c(c1)c(Cc1ccccc1)cn2Cc1ccccc1C(=O)O)Nc1ccc(Cl)cc1Cl [Compound 18, 2-((3-Benzyl-5-(2-((2,4-dichlorophenyl)amino)-2-oxoethoxy)-1H-indol-1-yl)methyl)benzoic acid] | 93.2 ± 0.59% |  | 75.88 ± 0.35% | > 100 µM | 28.1 µM
O=C(COc1ccc2ccn(Cc3cccc(C(=O)O)c3)c2c1)Nc1ccc(Cl)cc1Cl [Compound 15, 3-((6-(2-((2,4-Dichlorophenyl)amino)-2-oxoethoxy)-1H-indol-1-yl)methyl)benzoic acid] | 126.5 ± 0.92% |  | 86.09 ± 0.31% | > 100 µM | > 100 µM
